In patent publication US8946439B2, “Amide compounds, compositions and uses thereof” (Evotec AG, priority 2008, dated 2015):
Like-named read-outs stand apart in the source and are kept apart here.

What was measured:
hP2X2/3H = biological target: T1, hP2X2/3H (Homo sapiens, UniProt P56373+Q9UBL9); assay: Calcium uptake assay (P2X antagonist assay), P2X2/3 heteromer; type: cell-based; settings: hP2X2/3H
T1 construct: expressed in transfected cells; host or cells: e.g. HEK293 or 1321N1
T1 sequence (Q9UBL9 1-471): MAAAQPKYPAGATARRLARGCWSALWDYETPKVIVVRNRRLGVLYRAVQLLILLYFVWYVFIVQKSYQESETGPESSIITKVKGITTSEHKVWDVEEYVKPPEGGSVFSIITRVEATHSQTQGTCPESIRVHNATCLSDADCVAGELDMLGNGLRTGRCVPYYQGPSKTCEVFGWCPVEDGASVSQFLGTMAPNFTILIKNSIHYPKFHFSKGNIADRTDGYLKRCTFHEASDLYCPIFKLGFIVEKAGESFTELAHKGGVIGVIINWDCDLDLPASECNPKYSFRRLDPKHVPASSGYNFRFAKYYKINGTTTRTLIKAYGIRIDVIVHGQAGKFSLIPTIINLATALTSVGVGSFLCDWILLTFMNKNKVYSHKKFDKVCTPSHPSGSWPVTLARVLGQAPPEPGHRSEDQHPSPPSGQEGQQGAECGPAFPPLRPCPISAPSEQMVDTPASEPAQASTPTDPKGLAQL
T1 sequence (P56373 1-397): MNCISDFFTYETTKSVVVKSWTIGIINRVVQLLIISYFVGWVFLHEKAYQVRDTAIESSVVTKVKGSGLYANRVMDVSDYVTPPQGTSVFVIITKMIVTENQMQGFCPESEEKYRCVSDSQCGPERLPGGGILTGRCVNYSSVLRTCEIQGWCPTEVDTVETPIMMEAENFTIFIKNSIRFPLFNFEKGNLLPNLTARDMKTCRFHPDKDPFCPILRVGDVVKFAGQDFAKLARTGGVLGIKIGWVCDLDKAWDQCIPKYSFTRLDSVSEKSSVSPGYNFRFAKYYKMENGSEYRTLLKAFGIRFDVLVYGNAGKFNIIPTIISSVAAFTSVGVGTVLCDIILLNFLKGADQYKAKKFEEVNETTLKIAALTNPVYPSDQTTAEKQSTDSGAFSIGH
Method in brief: (§1)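 Stably or transiently transfected HEK293 or 1321N1 cells; the heteromer is made by adding P2X3 to a P2X2-stable line, with heteromer function isolated pharmacologically. The peak-minus-baseline FLIPR calcium signal gives % inhibition and a 4-parameter-logistic IC50.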

hP2X3 = biological target: T2, hP2X3 (Homo sapiens, UniProt P56373); assay: Calcium uptake assay (P2X antagonist assay), P2X3 homomer; type: cell-based; settings: hP2X3
T2 construct: expressed in transfected cells; host or cells: e.g. HEK293 or 1321N1
T2 sequence (P56373 1-397): T1 sequence (P56373 1-397)
Method in brief: as §1

[1] = calcium uptake assay, read-out: IC50 hP2X2/3H (nM), Ca Influx
[2] = calcium uptake assay, read-out: IC50 hP2X3 (nM), Ca Influx
[3] = Ca influx (calcium uptake assay), read-out: IC50 hP2X2/3H
[4] = Ca influx (calcium uptake assay), read-out: IC50 hP2X3

| Structure (SMILES) | IC50 (hP2X2/3H; [1]) | IC50 (hP2X3; [2]) | IC50 (hP2X2/3H; [3]) | IC50 (hP2X3; [4]) |
| --- | --- | --- | --- | --- |
| CCCS(=O)(=O)c1cc(C(=O)NCc2ccc(C)c(S(C)(=O)=O)c2)cc(-c2ccc(C)cc2)c1 [Compound 41] | < 100 nM | < 100 nM | – | – |
| Cc1ccc(-c2cc(C(=O)NCc3ccc(C)nc3)cc(C(=O)N3CC[C@@H](NC(=O)OC(C)(C)C)C3)c2)cc1 [Compound 100] | 100 to 500 nM | 501 to 1000 nM | – | – |
| Cc1ccc(-c2cc(OC3COCC3O)cc(C(=O)N[C@H](C)c3cnc(C)nc3)c2)nc1 (some centres unmarked) [Compound 364] | – | – | 100 to 500 nM | < 100 nM |
| CCS(=O)(=O)c1cc(C(=O)N[C@H](C)c2cnc(C)nc2)cc(-c2ccc(C)cc2)c1 [Compound 210] | – | – | < 100 nM | < 100 nM |
| Cc1ccc(-c2cc(C(=O)NCc3ccc4ocnc4c3)cc(C(=O)N3CCCC3)c2)cc1 [Compound 90] | < 100 nM | < 100 nM | – | – |
| Cc1ccc(-c2cc(C(=O)N[C@H](C)c3cnc(C)nc3)cc(C(O)c3ccccn3)c2)cc1 (some centres unmarked) [Compound 268] | – | – | < 100 nM | < 100 nM |
| Cc1ccc(-c2cc(C(=O)NCc3ncc(C(F)(F)F)cc3Cl)cc(S(C)(=O)=O)c2)nc1 [Compound 350] | – | – | 100 to 500 nM | < 100 nM |
| Cc1ccc(-c2cc(C(=O)NCc3ccc(C)nc3)cc(C(=O)N3CCN4CCCC4C3)c2)cc1 (centres unmarked) [Compound 128] | < 100 nM | < 100 nM | – | – |
| Cc1ccc(-c2cc(C(=O)N[C@H](C)c3cnc(C)nc3)cc(C(O)c3nccs3)c2)c(C#N)c1 (some centres unmarked) [Compound 293] | – | – | < 100 nM | < 100 nM |
| Cc1ccc([C@@H](C)NC(=O)c2cc(C(=O)N3CCCC3)cc(-c3ccc(Br)cc3)c2)cn1 [Compound 217] | – | – | < 100 nM | < 100 nM |
| COCCOc1cc(C(=O)N[C@H](C)c2cnc(C)nc2)cc(-c2ccc(C)cc2C#N)c1 [Compound 253] | – | – | < 100 nM | < 100 nM |
| Cc1ccc(-c2cc(C(=O)NCc3ccc(C)nc3)cc(C(=O)N(C)c3ccncc3)c2)cc1 [Compound 163, N3,4′-Dimethyl-N5-((6-methylpyridin-3-yl)methyl)-N3-(pyridin-4-yl)biphenyl-3,5-dicarboxamide] | 100 to 500 nM | < 100 nM | – | – |
| Cc1ccc(-c2cc(C(=O)NCc3cnc(C)nc3)cc(S(C)(=O)=O)c2)cc1 [Compound 22, 4′-Methyl-N-((2-methylpyrimidin-5-yl)methyl)-5-(methylsulfonyl)biphenyl-3-carboxamide] | 100 to 500 nM | < 100 nM | – | – |
| Cc1ccc(-c2cc(C(=O)NCc3ccc(C)nc3)cc(C(O)c3ccccn3)c2)cc1 (centres unmarked) [Compound 240, 5-(Hydroxy(pyridin-2-yl)methyl)-4′-methyl-N-((6-methylpyridin-3-yl)methyl)biphenyl-3-carboxamide] | – | – | < 100 nM | < 100 nM |
| Cc1ccc(-c2cc(C(=O)NCc3ccc(C)nc3)cc(C(=O)N3CCN(C(C)C)CC3)c2)cc1 [Compound 125] | 100 to 500 nM | < 100 nM | – | – |
| Cc1ccc(-c2cc(C(=O)NCc3ccc4c(c3)S(=O)(=O)CC4)cc(S(C)(=O)=O)c2)nc1 [Compound 352] | – | – | 100 to 500 nM | < 100 nM |
| Cc1ccc(-c2cc(C(=O)NCc3ncc(C(F)(F)F)cc3Cl)cc(C(=O)N3CC(O)C3)c2)cc1 [Compound 129] | < 100 nM | < 100 nM | – | – |
| Cc1ccc(-c2cc(C(=O)NCc3ccc(C)nc3)cc(S(C)(=O)=O)c2)cc1 [Compound 58, 4′-Methyl-N-((6-methylpyridin-3-yl)methyl)-5-(methylsulfonyl)biphenyl-3-carboxamide] | < 100 nM | < 100 nM | – | – |
| Cc1ccc(-c2cc(OC(C)CO)cc(C(=O)N[C@H](C)c3ccc(C)nc3)c2)c(C#N)c1 (some centres unmarked) [Compound 377] | – | – | < 100 nM | < 100 nM |
| Cc1ccc(-c2cc(C(=O)NCc3cccc(-n4cnnc4)c3)cc(C(=O)N3CCCC3)c2)cc1 [Compound 159] | 100 to 500 nM | 100 to 500 nM | – | – |
| Cc1ccc(-c2cc(C(=O)NCc3ccc(C)nc3)cc(C(=O)N3CCNC(C)C3)c2)cc1 (centres unmarked) [Compound 126] | 100 to 500 nM | < 100 nM | – | – |
| Cc1ccc(-c2cc(C#N)cc(C(=O)NCc3ccc(C)nc3)c2)nc1 [Compound 160] | 501 to 1000 nM | 100 to 500 nM | – | – |
